pIC50: −log10 of the molar value.
Biological target: T1, Nutrient-deprivation autophagy factor-1 (NAF-1, miner1) (Homo sapiens, UniProt Q8N5K1)
T1 sequence (Q8N5K1 57-135 limits assumed): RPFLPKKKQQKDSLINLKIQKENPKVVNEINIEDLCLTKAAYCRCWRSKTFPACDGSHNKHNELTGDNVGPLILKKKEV
Assay: scintillation proximity assay, [3H]rosiglitazone displacement
Assay type: binding

pIC50: 4.53
Substance: NL-1

From paper PMC6542280 (Bioorganic & medicinal chemistry letters, 2019)
